{
  "source": "paper PMC8237267",
  "about": "(Journal of Medicinal Chemistry, 2021)",
  "key": {"[1]": {"test_system": "MV4-11", "assay": "Cytotoxicity assay (Cell Titer-Blue, 72 h)", "type": "cell-based", "conditions": "Homo sapiens; MV4-11 (AML); read-out: In cellulo IC50 MV4-11"}, "[2]": {"test_system": "MRC-9", "assay": "Cytotoxicity assay (Cell Titer-Blue, 72 h)", "type": "cell-based", "conditions": "MRC9; MRC-9 (healthy fibroblasts); read-out: In cellulo IC50 MRC-9"}, "[3]": {"test_system": "MOLM-13", "assay": "Cytotoxicity assay (Cell Titer-Blue, 72 h)", "type": "cell-based", "conditions": "Homo sapiens, AML, one representative of three experiments, read-out: IC50 (heat map) MOLM-13"}, "[4]": {"test_system": "KHYG-1", "assay": "Cytotoxicity assay (Cell Titer-Blue, 72 h)", "type": "cell-based", "conditions": "ANKL, one representative of three experiments, read-out: IC50 (heat map) KHYG-1"}, "[5]": {"test_system": "NK-92", "assay": "Cytotoxicity assay (Cell Titer-Blue, 72 h)", "type": "cell-based", "conditions": "NK92; LGL; one representative of three experiments; read-out: IC50 (heat map) NK-92"}, "[6]": {"test_system": "SNK6", "assay": "Cytotoxicity assay (Cell Titer-Blue, 72 h)", "type": "cell-based", "conditions": "T/NK cell lymphoma, one representative of three experiments, read-out: IC50 (heat map) SNK6"}, "[7]": {"test_system": "DERL-2", "assay": "Cytotoxicity assay (Cell Titer-Blue, 72 h)", "type": "cell-based", "conditions": "γδ T-NHL; one representative of three experiments; read-out: IC50 (heat map) DERL-2"}, "[8]": {"test_system": "Hut78", "assay": "Cytotoxicity assay (Cell Titer-Blue, 72 h)", "type": "cell-based", "conditions": "Homo sapiens, CTCL, one representative of three experiments, read-out: IC50 (heat map) Hut78", "experimental": "(§1) The PTCL cell lines, KHYG-1, NK-92, SNK6, DERL-2, Mac1, 1305 Myla, Hut78, SU-DHL-1 or T-ALL cell lines SUP-T11, DND-41, and MOLT4 were maintained in RPMI-1640 supplemented with 10% FBS, 0.06 g/L penicillin/0.1 g/L streptomycin (Pen/Strep, Gibco), and 2 mM L-glutamine (Gibco). Culture media of KHYG-1, NK-92, SNK6, and DERL-2 cells was additionally supplemented with 2.5 ng/mL recombinant human IL-2 (ImmunoTools GmbH, Germany). The authenticity of PTCL cell lines was confirmed by analysis of highly polymorphic short tandem repeat loci (STR) using the PowerPlex 16 HS System (Promega; performed by Microsynth AG, Switzerland).\n(§2) Cells were plated in 96-well flat-bottom sterile culture plates with low-evaporation lids (Costar #3997). The inhibitors and a vehicle control (0.5% DMSO) were added to the cells following 24 h. After 72 h, Cell Titer-Blue (Promega #G808A) was added to each well (20 μL), and the fluorescence was measured at 560/590 nm using a Cytation S63 spectrophotometer (BioTek) or a GloMax Discover Microplate Reader (Promega, Madison, WI, USA). GraphPad Prism 6.0 (GraphPad Software Inc.) was used to determine the IC50 values."}, "[9]": {"test_system": "Mac1", "assay": "Cytotoxicity assay (Cell Titer-Blue, 72 h)", "type": "cell-based", "conditions": "ALK- ALCL; one representative of three experiments; read-out: IC50 (heat map) Mac1", "experimental": "as §1, §2"}, "[10]": {"test_system": "Myla", "assay": "Cytotoxicity assay (Cell Titer-Blue, 72 h)", "type": "cell-based", "conditions": "CTCL; one representative of three experiments; read-out: IC50 (heat map) Myla"}, "[11]": {"test_system": "SU-DHL-1", "assay": "Cytotoxicity assay (Cell Titer-Blue, 72 h)", "type": "cell-based", "conditions": "Homo sapiens, ALK+ ALCL, one representative of three experiments, read-out: IC50 (heat map) SU-DHL-1"}, "[12]": {"test_system": "SUP-T11", "assay": "Cytotoxicity assay (Cell Titer-Blue, 72 h)", "type": "cell-based", "conditions": "SUPT11; T-ALL/T-PLL like; one representative of three experiments; read-out: IC50 (heat map) SUP-T11"}, "[13]": {"test_system": "DND-41", "assay": "Cytotoxicity assay (Cell Titer-Blue, 72 h)", "type": "cell-based", "conditions": "DND41; T-ALL; one representative of three experiments; read-out: IC50 (heat map) DND-41"}, "[14]": {"test_system": "MOLT4", "assay": "Cytotoxicity assay (Cell Titer-Blue, 72 h)", "type": "cell-based", "conditions": "Homo sapiens, MOLT-4; T-ALL; one representative of three experiments; read-out: IC50 (heat map) MOLT4"}, "[15]": {"test_system": "NHF (normal human fibroblasts)", "assay": "Cytotoxicity assay (Cell Titer-Blue, 72 h)", "type": "cell-based", "conditions": "Fibroblast, read-out: Cellular IC50 NHF"}, "[16]": {"test_system": "HUVEC (primary human umbilical vein endothelial cells)", "assay": "Cytotoxicity assay (Cell Titer-Blue, 72 h)", "type": "cell-based", "conditions": "read-out: Cellular IC50 HUVEC"}, "[17]": {"test_system": "pPF (primary pooled fibroblasts from 250 donors)", "assay": "Cytotoxicity assay (Cell Titer-Blue, 72 h)", "type": "cell-based", "conditions": "Fibroblast, read-out: Cellular IC50 pPF"}, "[18]": {"assay": "In vivo PK study in CD-1 male mice", "conditions": "mouse, plasma, CD-1 mice, IP, 20 mg/kg"}, "[19]": {"test_system": "MV4-11 cells", "assay": "FACS apoptosis detection assay (Annexin V/PI)", "type": "cell-based", "conditions": "MV4-11, 18 h", "experimental": "MV4-11 cells were prepared, dosed, and washed with cold 1× PBS. The resulting cell pellets were resuspended in 1× Binding Buffer (1 × 10^6 cell/mL) from the FITC Annexin V Apoptosis Detection Kit I (BD Pharmingen). Subsequently, the dyes annexin V (5 μL) and propidium iodide (PI, 5 μL) were added to 2.5 × 10^5 cells (250 μL). The suspension was thoroughly mixed and incubated in the dark for 15 min. Following the addition of 250 μL of 1× binding buffer, the cells were analyzed by flow cytometry within 1 h using the Cytoflex S system (Beckman Coulter)."}, "[20]": {"test_system": "acetylation of α-tubulin", "assay": "Immunofluorescence assay in HeLa cells", "type": "cell-based", "conditions": "6 h, increasing doses", "experimental": "HeLa cells were plated to subconfluency on a 96-well plate (clear bottom black from Fisher Scientific). As above, inhibitors were introduced following 24 h. The cells were washed with 1× PBS, fixed with 4% formaldehyde (Millipore Sigma), permeabilized with 1% Triton X-100 (Millipore Sigma), and blocked in 5% bovine serum albumin (BSA) (BioShop) for 1 h at room temperature. Following this treatment, the cells were incubated in a cocktail composed of acetylated α-tubulin mouse monoclonal (1:100 dilution, MD Millipore) and acetylated histone H3 (1:50 dilution, Ac-Lys18, Sigma) antibodies. Secondary antibodies anti-mouse Alexa Fluor 647 and anti-rabbit Alexa Fluor 488 were used for immunofluorescent detection. Cells were counterstained for nucleic acids using 4′,6-diamidino-2-phenylindole (DAPI) (ThermoFisher Scientific). The cells were imaged with a Cytation S63 spectrophotometer and the fluorescence intensity was determined using ImageJ (n = 3). Two-way ANOVA with Tukey’s multiple comparisons test were performed using GraphPad Prism 6.0 (GraphPad Software Inc.). A p-value ≤ 0.05 was considered significant."}, "[21]": {"test_system": "acetylated histone H3", "assay": "Western blot in MV4-11 cells", "type": "cell-based", "conditions": "MV4-11, 6 h", "experimental": "(§3) Briefly, MV4-11 cells were incubated with inhibitors prior to cell lysis with radioimmunoprecipitation assay (RIPA) buffer (20 mM Tris pH 7.4, 150 mM NaCl, 0.5% deoxycholate, 1% Triton X-100, and 0.1% sodium dodecyl sulfate (SDS)). Total protein content was determined through a BCA assay (ThermoFisher), resolved via a 4–20% polyacrylamide SDS gel, and transferred to a nitrocellulose membrane (Bio-Rad). The membranes were blocked with a 5% solution (skimmed milk powder in PBS-T). This was followed by incubation at 4 °C (overnight) with the following antibodies: acetylated α-tubulin mouse monoclonal (MABT868, EMD Millipore), acetylated histone H3 (Ac-Lys18, 07–354, Sigma), PARP-1 (ab227244, Abcam), apoptosis Western blot cocktail (136812, Abcam), cleaved PARP-1 (ab32561, Abcam), and HSC70 (sc-7298, Santa Cruz). Following overnight incubation, horseradish peroxidase (HRP)-conjugated goat anti-mouse IgG secondary antibody (7076, Cell Signaling) or HRP-linked anti-rabbit IgG secondary antibody (7074, Cell Signaling) was applied to the membrane in a 1:5000 dilution. The bands were visualized using clarity Western ECL substrate luminal/enhancer solution and peroxide solution. Western blotting analysis was carried out using Image lab software (Bio-Rad).[47],[50],[70]"}, "[22]": {"test_system": "cleavage of PARP-1 and Caspase-3", "assay": "Western blot of apoptosis markers in MV4-11 cells", "type": "cell-based", "conditions": "MV4-11, 6 h, 5 μM", "experimental": "as §3"}},
  "data": [
    {"smiles": "O=C(CCCCCCNC(=O)c1cnc(N(c2ccccc2)c2ccccc2Cl)nc1)NO", "note": "[Citarinostat]", "values": [
      {"measurement": "IC50", "setting": "[1]", "result": 1.34, "unit": "µM"},
      {"measurement": "IC50", "setting": "[2]", "result": "> 30", "unit": "µM"},
      {"measurement": "IC50", "setting": "[3]", "result": 1.98, "unit": "µM"},
      {"measurement": "IC50", "setting": "[4]", "result": 1.2, "unit": "µM"},
      {"measurement": "IC50", "setting": "[5]", "result": 1.97, "unit": "µM"},
      {"measurement": "IC50", "setting": "[6]", "result": 1.9, "unit": "µM"},
      {"measurement": "IC50", "setting": "[7]", "result": 1.02, "unit": "µM"},
      {"measurement": "IC50", "setting": "[8]", "result": 3.77, "unit": "µM"},
      {"measurement": "IC50", "setting": "[9]", "result": 1.78, "unit": "µM"},
      {"measurement": "IC50", "setting": "[10]", "result": 7.97, "unit": "µM"},
      {"measurement": "IC50", "setting": "[11]", "result": 4.66, "unit": "µM"},
      {"measurement": "IC50", "setting": "[12]", "result": 3.94, "unit": "µM"},
      {"measurement": "IC50", "setting": "[13]", "result": 1.96, "unit": "µM"},
      {"measurement": "IC50", "setting": "[14]", "result": 1.72, "unit": "µM"},
      {"measurement": "IC50", "setting": "[15]", "result": 5.74, "unit": "µM"},
      {"measurement": "IC50", "setting": "[16]", "result": 4.86, "unit": "µM"},
      {"measurement": "IC50", "setting": "[17]", "result": 7.44, "unit": "µM"},
      {"measurement": "AUC(0-t)", "setting": "[18]; read-out: In vivo AUClast (overall exposure)", "result": 4.16, "unit": "µg·h/mL"},
      {"measurement": "half-life", "setting": "[18]; read-out: In vivo t1/2", "result": 15, "unit": "min"},
      {"measurement": "Early Apoptosis", "setting": "[19]; 0.5 μM", "result": 9, "unit": "%"},
      {"measurement": "Late Apoptosis", "setting": "[19]; 1 μM", "result": 10, "unit": "%"},
      {"measurement": "Healthy (nonapoptotic)", "setting": "[19]; 2 μM", "result": 47, "unit": "%"},
      {"measurement": "acetylation of α-tubulin (immunofluorescence)", "setting": "[20]", "result": "weaker acetylation as compared to KT-531"},
      {"measurement": "acetylated histone H3 levels (Western blot)", "setting": "[21]", "result": "higher with citarinostat in comparison to KT-531"},
      {"measurement": "cleavage of PARP-1 and Caspase-3", "setting": "[22]", "result": "absence of cleaved Caspase-3 and PARP-1"}
    ]}
  ]
}
